Assay results: patent US12077503B2, “Substituted cyclic amides and their use as herbicides” (FMC CORPORATION, priority 2015, dated 2024)

Tests used:
Type in all cases: in vivo
[1] = tested on: barnyardgrass (Echinochloa crus-galli); assay: Test G Pre-Emergence Protocol; settings: Echinochloa crus-galli, pre-emergence, 312 h, evaluated after 13 days; for pest or weed control at 15.625 g/ha: 15.625 g ai/ha, read-out: Barnyard grass damage rating (100=total damage to plant; 0=no damage to plant); for pest or weed control at 62.5 g/ha: 62.5 g ai/ha, 100=total damage to plant, 0=no damage to plant, read-out: plant damage rating, Barnyardgrass; for pest or weed control at 250 g/ha: 250 g ai/ha, read-out: Barnyardgrass damage rating (100=total damage to plant; 0=no damage to plant)
Outline: (§1)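 One day after sowing, pots are treated with a spray of test compound formulated in acetone/water 50:50 plus 0.5% Tween 20, giving 15.625, 62.5 or 250 g/ha. Evaluation on a 0–100 damage scale follows 13 days of glasshouse growth.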

corn (Zea mays) [2] = assay: Test G Pre-Emergence Protocol; settings: Zea mays, pre-emergence, 312 h, evaluated after 13 days; for plant injury at 15.625 g/ha: 15.625 g ai/ha; for plant injury at 15.625 g/ha / plant injury at 250 g/ha: read-out: Corn damage rating (100=total damage to plant; 0=no damage to plant); for plant injury at 62.5 g/ha: 62.5 g ai/ha, 100=total damage to plant, 0=no damage to plant, read-out: plant damage rating, Corn; for plant injury at 250 g/ha: 250 g ai/ha
Outline: as §1

[3] = tested on: giant foxtail (Setaria faberi); assay: Test G Pre-Emergence Protocol; settings: Setaria faberi, pre-emergence, 312 h, evaluated after 13 days; for pest or weed control at 15.625 g/ha: 15.625 g ai/ha; for pest or weed control at 15.625 g/ha / pest or weed control at 250 g/ha: read-out: Foxtail, Giant damage rating (100=total damage to plant; 0=no damage to plant); for pest or weed control at 62.5 g/ha: 62.5 g ai/ha, 100=total damage to plant, 0=no damage to plant, read-out: plant damage rating, Foxtail, Giant; for pest or weed control at 250 g/ha: 250 g ai/ha
Outline: as §1

[4] = tested on: ivy-leaved morning glory (Ipomoea hederacea); assay: Test G Pre-Emergence Protocol; settings: Ipomoea, pre-emergence, 312 h, evaluated after 13 days; for pest or weed control at 15.625 g/ha: 15.625 g ai/ha, read-out: Morning-glory, Ivy-leaved damage rating (100=total damage to plant; 0=no damage to plant); for pest or weed control at 62.5 g/ha: 62.5 g ai/ha, 100=total damage to plant, 0=no damage to plant, read-out: plant damage rating, Morningglory, Ivy-leaved; for pest or weed control at 250 g/ha: 250 g ai/ha, read-out: Morningglory, Ivy-leaved damage rating (100=total damage to plant; 0=no damage to plant)
Outline: as §1

[5] = tested on: redroot pigweed (Amaranthus retroflexus); assay: Test G Pre-Emergence Protocol; settings: Amaranthus retroflexus, pre-emergence, 312 h, evaluated after 13 days; for pest or weed control at 15.625 g/ha: 15.625 g ai/ha; for pest or weed control at 15.625 g/ha / pest or weed control at 250 g/ha: read-out: Pigweed, Redroot damage rating (100=total damage to plant; 0=no damage to plant); for pest or weed control at 62.5 g/ha: 62.5 g ai/ha, 100=total damage to plant, 0=no damage to plant, read-out: plant damage rating, Pigweed, Redroot; for pest or weed control at 250 g/ha: 250 g ai/ha
Outline: as §1

[6] = tested on: velvetleaf (Abutilon theophrasti); assay: Test G Pre-Emergence Protocol; settings: Abutilon theophrasti, pre-emergence, 312 h, evaluated after 13 days; for pest or weed control at 15.625 g/ha: 15.625 g ai/ha; for pest or weed control at 15.625 g/ha / pest or weed control at 250 g/ha: read-out: Velvetleaf damage rating (100=total damage to plant; 0=no damage to plant); for pest or weed control at 62.5 g/ha: 62.5 g ai/ha, 100=total damage to plant, 0=no damage to plant, read-out: plant damage rating, Velvetleaf; for pest or weed control at 250 g/ha: 250 g ai/ha
Outline: as §1

[7] = tested on: barnyardgrass (Echinochloa crus-galli); assay: Test G Post-Emergence Protocol; settings: Echinochloa crus-galli, post-emergence, 312 h; for pest or weed control at 15.625 g/ha: 15.625 g ai/ha, evaluated after 13 days (100=total damage to plant; 0=no damage to plant), read-out: Barnyardgrass damage rating; for pest or weed control at 62.5 g/ha: 62.5 g ai/ha, read-out: Barnyardgrass damage rating (100=total damage to plant; 0=no damage to plant); for pest or weed control at 62.5 g/ha / pest or weed control at 250 g/ha: evaluated after 13 days; for pest or weed control at 250 g/ha: 250 g ai/ha, read-out: damage to plant, Barnyardgrass (100=total damage to plant; 0=no damage to plant)
Outline: (§2)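 Scores run 0 (no damage) to 100 (total damage) and were taken 13 days after spraying. Plants had been raised in pots for 8 days under glasshouse control (24/16 °C, 14 h photoperiod, 65% humidity) and then treated at 15.625, 62.5 or 250 g/ha.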

corn (Zea mays) [8] = assay: Test G Post-Emergence Protocol; settings: Zea mays, post-emergence, 312 h; for plant injury at 15.625 g/ha: 15.625 g ai/ha, evaluated after 13 days (100=total damage to plant; 0=no damage to plant), read-out: Corn damage rating; for plant injury at 62.5 g/ha: 62.5 g ai/ha, read-out: Corn damage rating (100=total damage to plant; 0=no damage to plant); for plant injury at 62.5 g/ha / plant injury at 250 g/ha: evaluated after 13 days; for plant injury at 250 g/ha: 250 g ai/ha, read-out: damage to plant, Corn (100=total damage to plant; 0=no damage to plant)
Outline: as §2

[9] = tested on: giant foxtail (Setaria faberi); assay: Test G Post-Emergence Protocol; settings: Setaria faberi, post-emergence, 312 h; for pest or weed control at 15.625 g/ha: 15.625 g ai/ha, evaluated after 13 days (100=total damage to plant; 0=no damage to plant), read-out: Foxtail, Giant damage rating; for pest or weed control at 62.5 g/ha: 62.5 g ai/ha, read-out: Foxtail, Giant damage rating (100=total damage to plant; 0=no damage to plant); for pest or weed control at 62.5 g/ha / pest or weed control at 250 g/ha: evaluated after 13 days; for pest or weed control at 250 g/ha: 250 g ai/ha, read-out: damage to plant, Foxtail, Giant (100=total damage to plant; 0=no damage to plant)
Outline: as §2

[10] = tested on: ivy-leaved morning glory (Ipomoea hederacea); assay: Test G Post-Emergence Protocol; settings: Ipomoea, post-emergence, 312 h; for pest or weed control at 15.625 g/ha: 15.625 g ai/ha, evaluated after 13 days (100=total damage to plant; 0=no damage to plant), read-out: Morningglory, Ivy-leaved damage rating; for pest or weed control at 62.5 g/ha: 62.5 g ai/ha, read-out: Morningglory, Ivy-leaved damage rating (100=total damage to plant; 0=no damage to plant); for pest or weed control at 62.5 g/ha / pest or weed control at 250 g/ha: evaluated after 13 days; for pest or weed control at 250 g/ha: 250 g ai/ha, read-out: damage to plant, Morningglory, Ivy-leaved (100=total damage to plant; 0=no damage to plant)
Outline: as §2

[11] = tested on: redroot pigweed (Amaranthus retroflexus); assay: Test G Post-Emergence Protocol; settings: Amaranthus retroflexus, post-emergence, 312 h; for pest or weed control at 15.625 g/ha: 15.625 g ai/ha, evaluated after 13 days (100=total damage to plant; 0=no damage to plant), read-out: Pigweed, Redroot damage rating; for pest or weed control at 62.5 g/ha: 62.5 g ai/ha, read-out: Pigweed, Redroot damage rating (100=total damage to plant; 0=no damage to plant); for pest or weed control at 62.5 g/ha / pest or weed control at 250 g/ha: evaluated after 13 days; for pest or weed control at 250 g/ha: 250 g ai/ha, read-out: damage to plant, Pigweed, Redroot (100=total damage to plant; 0=no damage to plant)
Outline: as §2

[12] = tested on: velvetleaf (Abutilon theophrasti); assay: Test G Post-Emergence Protocol; settings: Abutilon theophrasti, post-emergence, 312 h; for pest or weed control at 15.625 g/ha: 15.625 g ai/ha, evaluated after 13 days (100=total damage to plant; 0=no damage to plant), read-out: Velvetleaf damage rating; for pest or weed control at 62.5 g/ha: 62.5 g ai/ha, read-out: Velvetleaf damage rating (100=total damage to plant; 0=no damage to plant); for pest or weed control at 62.5 g/ha / pest or weed control at 250 g/ha: evaluated after 13 days; for pest or weed control at 250 g/ha: 250 g ai/ha, read-out: damage to plant, Velvetleaf (100=total damage to plant; 0=no damage to plant)
Outline: as §2

CN1C[C@@H](c2ccc(C(F)(F)F)cc2)[C@H](C(=O)Nc2ncnn2C)C1=O (racemic) [Compound 1643]
0%: pest or weed control at 15.625 g/ha [1] | pest or weed control at 62.5 g/ha [1] | pest or weed control at 250 g/ha [1] | plant injury at 15.625 g/ha (corn (Zea mays) [2]) | plant injury at 62.5 g/ha (corn (Zea mays) [2]) | plant injury at 250 g/ha (corn (Zea mays) [2]) | pest or weed control at 15.625 g/ha [3] | pest or weed control at 62.5 g/ha [3] | pest or weed control at 250 g/ha [3] | pest or weed control at 15.625 g/ha [4] | pest or weed control at 62.5 g/ha [4] | pest or weed control at 250 g/ha [4] | pest or weed control at 15.625 g/ha [5] | pest or weed control at 62.5 g/ha [5] | pest or weed control at 250 g/ha [5] | pest or weed control at 15.625 g/ha [6] | pest or weed control at 62.5 g/ha [6] | pest or weed control at 250 g/ha [6] | pest or weed control at 15.625 g/ha [7] | pest or weed control at 62.5 g/ha [7] | pest or weed control at 250 g/ha [7] | plant injury at 15.625 g/ha (corn (Zea mays) [8]) | plant injury at 62.5 g/ha (corn (Zea mays) [8]) | plant injury at 250 g/ha (corn (Zea mays) [8]) | pest or weed control at 15.625 g/ha [9] | pest or weed control at 62.5 g/ha [9] | pest or weed control at 250 g/ha [9] | pest or weed control at 15.625 g/ha [10] | pest or weed control at 62.5 g/ha [10] | pest or weed control at 250 g/ha [10] | pest or weed control at 15.625 g/ha [11] | pest or weed control at 62.5 g/ha [11] | pest or weed control at 250 g/ha [11] | pest or weed control at 15.625 g/ha [12] | pest or weed control at 62.5 g/ha [12] | pest or weed control at 250 g/ha [12]

Cc1cnc(NC(=O)[C@@H]2C(=O)N(C)C[C@H]2c2ccc(C(F)(F)F)cc2)cn1 (racemic) [Compound 1648]
0%: pest or weed control at 15.625 g/ha [1] | pest or weed control at 62.5 g/ha [1] | pest or weed control at 250 g/ha [1] | plant injury at 15.625 g/ha (corn (Zea mays) [2]) | plant injury at 62.5 g/ha (corn (Zea mays) [2]) | plant injury at 250 g/ha (corn (Zea mays) [2]) | pest or weed control at 15.625 g/ha [3] | pest or weed control at 62.5 g/ha [3] | pest or weed control at 250 g/ha [3] | pest or weed control at 15.625 g/ha [4] | pest or weed control at 62.5 g/ha [4] | pest or weed control at 250 g/ha [4] | pest or weed control at 15.625 g/ha [5] | pest or weed control at 62.5 g/ha [5] | pest or weed control at 250 g/ha [5] | pest or weed control at 15.625 g/ha [6] | pest or weed control at 62.5 g/ha [6] | pest or weed control at 250 g/ha [6] | pest or weed control at 15.625 g/ha [7] | pest or weed control at 62.5 g/ha [7] | pest or weed control at 250 g/ha [7] | plant injury at 15.625 g/ha (corn (Zea mays) [8]) | plant injury at 62.5 g/ha (corn (Zea mays) [8]) | plant injury at 250 g/ha (corn (Zea mays) [8]) | pest or weed control at 15.625 g/ha [9] | pest or weed control at 62.5 g/ha [9] | pest or weed control at 250 g/ha [9] | pest or weed control at 15.625 g/ha [10] | pest or weed control at 62.5 g/ha [10] | pest or weed control at 250 g/ha [10] | pest or weed control at 15.625 g/ha [11] | pest or weed control at 62.5 g/ha [11] | pest or weed control at 250 g/ha [11] | pest or weed control at 15.625 g/ha [12] | pest or weed control at 62.5 g/ha [12] | pest or weed control at 250 g/ha [12]
